We go through 1 compound from article PMC12010006, “Subnanomolar MAS-related G protein-coupled receptor-X2/B2 antagonists with efficacy in human mast cells and disease models” (Signal Transduction and Targeted Therapy, 2025).

One series deals with mouse tracheal rings. The series can be described thus: Isometric force measurements of mouse tracheal rings on wire-myograph. The note with it: 100 µM, 10 min pre-treatment, C48/80 30 µg/mL. Here is the method: The MRGPRX2/MRGPRB2 agonist C48/80 was previously reported to induce tracheal contractions in WT mice, a response that was absent in mice with a frameshift mutation in Mrgprb2.[53] We investigated whether this effect could be blocked by PSB-172656, the potent MRGPRX2/MRGPRB2 antagonist. Therefore, the force of tracheal contractions induced by C48/80 (30 µg/mL) in mouse tracheal rings was measured using a wire myograph, confirming the compound’s ability to […] tracheal contractions (Fig. 7c, d).
Isometric force measurements were performed as described previously.[68] In detail, tracheas of C57BL/6 mice were isolated and cut into rings in cold low-calcium physiological saline solution (PSS), containing 118 mM NaCl, 5 mM KCl, 1.2 mM MgCl2, 1.5 mM NaH2PO4, 0.16 mM CaCl2, 10 mM glucose and 24 mM Hepes (pH 7.4). Rings were mounted on a wire-myograph (Multi Myograph 620 M, Danish Myo Technology, Aarhus, Denmark) and pre-stretched to 5 mN in PSS, containing 118 mM NaCl, 5 mM KCl, 1.2 mM MgCl2, 1.5 mM NaH2PO4, 1.6 mM CaCl2, 10 mM glucose, and 24 mM Hepes (pH 7.4). After equilibration for 20 min, maximal constriction was induced by methacholine (MCh, 10 μM, A2251, Sigma-Aldrich, Germany). […] Force amplitudes were always analyzed at the strongest contraction of tracheal rings. […] Statistical significance was determined by an unpaired Student’s t-test, *P < 0.05.

The test system of a further series is LAD2 cells. The series can be described thus: MTT assay, LAD2 cells. Format: cell-based, human. The note with it: 24 h; concentrations up to 6-fold higher than IC50 (3, 10, 30 nM). As for the experimental part:
Fig. 6 PSB-172656 inhibits MRGPRX2-mediated mast cell degranulation. a LAD2 cells were incubated with buffer (control) or various concentrations of MRGPRX2 antagonist PSB-172656, subsequently exposed to substance P (SP, 0.3 µM), and β-hexosaminidase release was measured. […] Data are expressed as means ± SEM of 3 biological replicates. Statistical significance was determined by one-way ANOVA (Tukey’s multiple comparisons), compared to the effect of SP in the absence of PSB-172656 (P-value*** < 0.001). b Potential cytotoxicity of PSB-172656 was determined in 3-[4,5-dimethylthiazol-2-yl]-2,5-diphenyl tetrazolium bromide (MTT) assays performed on LAD2 cells. Cells were treated with different concentrations of PSB-172656 for 24 h at 37 °C, and the optic density value was determined at 570 nm (the viability of untreated cells corresponds to 100% cell viability). […] Mean fluorescence intensity (MFI) levels of e CD107a and f CD63 are depicted. […] Degranulation is characterized by the release of β-hexosaminidase, expressed as a percentage of the total content. h Human skin MCs were incubated with different concentrations of PSB-172656 for 30 min followed by stimulation with CST-14 (1 µM). Statistical significance was calculated by one-way ANOVA (Tukey’s multiple comparisons), compared to agonist without PSB-172656 (P-value* < 0.05, […], and P-value**** < 0.001) […]

The next series relates to C3a-induced response. The series can be described thus: Surface expression of CD107a and CD63 (flow cytometry), LAD2 cells activated with C3a. The note with it: 30 nM; C3a 3 nM. Format: cell-based, human. As for the experimental part:
The granule-associated proteins CD107a and CD63 externalize in the process of degranulation. Their quantification by flow cytometry is a reliable marker of mast cell activation, which is often used for the diagnosis of allergies and anaphylaxis in mast cell activation tests.[49],[50] Thus, the expression of CD107a and CD63 on the cell surface was determined to confirm the effects of PSB-172656 on SP-induced MRGPRX2-mediated degranulation. […] In addition to MRPGRX2, LAD2 cells also express a GPCR that is specifically activated by the complement component C3a.[51] Both receptors can activate Gαi/o proteins to promote MC activation.[48],[52]
MC degranulation was also measured by determining the cell surface expression of CD107a (Lysosomal-Associated Membrane Protein-1, LAMP-1) and CD63 (LAMP-3) after agonist stimulation.[48] LAD2 cells were preincubated with PSB-172656 or vehicle control for 5 min at 37 °C, then activated with SP (0.3 μM) and or C3a (3 nM) for 5 min at 37 °C. After 5 min of incubation, cells were fixed with 500 µL of 4% fixation buffer (Biolegend, Catalog 420801) for 15 min at room temperature. […] Cell surface expression of CD107a and CD63 was measured from the zombie-yellow negative population by a BD LSR II flow cytometer (San Jose, CA, USA) and analyzed by FlowJo software version 10.7.2 (Tree Star Inc., Ashland, OR, USA).[48],[50]
On the technique in general: In flow cytometry, cells or beads pass a laser one at a time.

For the compound `CCc1c(C(C)C)[nH]c2nc3cc(F)c(F)cc3n2c1=O` [Compound 24, 3-ethyl-7,8-difluoro-2-isopropylbenzo[4,5]imidazo [1,2-a] pyrimidin-4(1H)-one], the “effect on C48/80-induced tracheal contractions” value in the series on mouse tracheal rings (listed as PSB-172565) was “potently blocks tracheal contractions”; in the series on mouse tracheal rings (listed as PSB-172656) it was “effectively blocked the contractions”. Further, in the series with LAD2 cells, the “toxicity in LAD2 cells (MTT)” value was “did not exhibit toxicity”. Besides, the “effect on C3a-induced expression of CD107a and CD63” value in the series with C3a-induced response is on record as “did not affect”.
